Results taken from publication PMC7927014, “Novel Small Molecule Hsp90/Cdc37 Interface Inhibitors Indirectly Target K-Ras-Signaling” (Cancers, 2021).

Columns and labels:
[1] = tested on: K-RasG12V nanoclustering; assay: K-RasG12V nanoclustering-FRET (FLIM-FRET) in HEK cells; format: cell-based; settings: 24 h, conglobatin A 2 μM, salinomycin 1.3 μM, 17-AAG 2 μM, CAY10585 10 μM, hit compounds indicated concentrations
Experimental: In total, 80,000 HEK cells were seeded in 12-well plates containing sterilized 16-mm coverslips and 1 mL medium. The next day, the cells were transfected using jetPRIME or FuGENE HD transfection reagent. For the donor fluorophore-only samples, the cells were transfected with 500 ng mGFP-tagged RasG12V plasmid. For the nanoclustering-FRET pair samples, the cells were transfected with both the donor and acceptor constructs, i.e., pmGFP- and pmCherry- RasG12V at a plasmid ratio of 1:3, respectively, and a total of 800 ng plasmids. The next day, the cells were treated with either 0.1% DMSO vehicle control or the indicated concentrations of compounds diluted in DMEM or RPMI medium for 24 h. For the gene silencing studies, the cells were transfected with the indicated amounts of siRNAs, together with the FRET pair constructs. The plasmids and siRNA were diluted in the same jetPRIME transfection buffer, followed by the addition of jetPRIME. […] The lifetime of the mGFP donor fluorophore was measured using a fluorescence microscope (Zeiss AXIO Observer D1) equipped with a fluorescence lifetime imaging attachment (Lambert Instruments), as described previously in detail. The apparent FRET efficiency (Eapp) was calculated as Eapp = (1 − τDA/τD) × 100%, with the measured fluorescence lifetimes τDA of the FRET sample and the τD of the donor-only sample.

[2] = tested on: H-RasG12V nanoclustering; assay: H-RasG12V nanoclustering-FRET (FLIM-FRET) in HEK cells; format: cell-based; settings: 24 h, conglobatin A 2 μM, salinomycin 1.3 μM, CAY10585 10 μM
Experimental: In total, 80,000 HEK cells were seeded in 12-well plates containing sterilized 16-mm coverslips and 1 mL medium. The next day, the cells were transfected using jetPRIME or FuGENE HD transfection reagent. For the donor fluorophore-only samples, the cells were transfected with 500 ng mGFP-tagged RasG12V plasmid. For the nanoclustering-FRET pair samples, the cells were transfected with both the donor and acceptor constructs, i.e., pmGFP- and pmCherry- RasG12V at a plasmid ratio of 1:3, respectively, and a total of 800 ng plasmids. The next day, the cells were treated with either 0.1% DMSO vehicle control or the indicated concentrations of compounds diluted in DMEM or RPMI medium for 24 h. For the gene silencing studies, the cells were transfected with the indicated amounts of siRNAs, together with the FRET pair constructs. The plasmids and siRNA were diluted in the same jetPRIME transfection buffer, followed by the addition of jetPRIME. After 48 h of transfection, the cells were fixed in 4% paraformaldehyde for 10 to 15 min, before being mounted onto slides with Mowiol 4–88 (cat. no. 81381, Sigma-Aldrich). The lifetime of the mGFP donor fluorophore was measured using a fluorescence microscope (Zeiss AXIO Observer D1) equipped with a fluorescence lifetime imaging attachment (Lambert Instruments), as described previously in detail. The apparent FRET efficiency (Eapp) was calculated as Eapp = (1 − τDA/τD) × 100%, with the measured fluorescence lifetimes τDA of the FRET sample and the τD of the donor-only sample.

[3] = tested on: Gal3; assay: Western blotting of galectin-3; format: cell-based; settings: Western blot, 24 h; K-RasG12V-transfected HEK and MDA-MB-231 cells
Experimental: The cells were trypsinized, washed with PBS, and lysed in RIPA buffer (cat no. 89900, ThermoFisher Scientific) containing protease and phosphatase inhibitors (cat. no. A32959, ThermoFisher Scientific) and 1 mM phenylmethylsulfonyl fluoride (PMSF). The cells in the RIPA buffer were placed on ice for 20 min, and were then sonicated in ice cold water for 5 min. The lysates were centrifuged at 4 °C, and their protein was quantified using a BCA kit (cat. no. 23225, ThermoFisher Scientific). Equal amounts of protein were separated by 10% SDS-PAGE, and were then transferred onto a nitrocellulose membrane (cat. no. NBA 083C001EA, Protran) using a wet transfer system (Bio-Rad) or semidry Transferblot Turbo Transfer System (Bio-Rad). After the transfer, the membranes were blocked for 30 min in 5% skimmed milk dissolved in 1× TBST, and then incubated with 1:2000 primary antibodies in 5% BSA in TBST at 4 °C overnight. […]
The next day, the membranes were washed three times in TBST for 10 min, and then incubated with secondary antibodies (1:5000) diluted in 5% skimmed milk in TBST for 1 h at RT. […] The protein bands were detected with a ChemiDoc MP instrument (Bio-Rad) after treatment with an ECL reagent (cat. no. 170-5061, BioRad). […]

[4] = tested on: MDA-MB-231 cells; assay: 2D cell proliferation (alamarBlue); format: cell-based; settings: Homo sapiens, MDA-MB-231, 72 h
Experimental: Per well, 500–700 cells were seeded in 96-well flat bottom culture plates in 100 µL. After 24 h, the cells were treated with 0.1% DMSO vehicle control or test compounds diluted in a medium using a 1:2 dilution-series, starting at 100 µM. The plates were further incubated for 72 h. The cell viability was measured after the addition of 10% alamarBlue reagent per well (cat. no. DAL1100, Thermo Fisher Scientific). The fluorescence intensity (excitation 560 nm and emission 590 nm) was measured after 4 h by the use of a H1 Hybrid Multi-Mode reader.

[5] = tested on: HIF-1α; assay: Western blotting of HIF-1α in nuclear extracts; format: cell-based; settings: Western blot of nuclear extracts, 24 h; K-RasG12V-transfected HEK and MDA-MB-231 cells; conglobatin A 5 or 10 μM, 17-AAG 2 μM
Experimental: (§1) The cells in the RIPA buffer were placed on ice for 20 min, and were then sonicated in ice cold water for 5 min. […] Equal amounts of protein were separated by 10% SDS-PAGE, and were then transferred onto a nitrocellulose membrane (cat. no. NBA 083C001EA, Protran) using a wet transfer system (Bio-Rad) or semidry Transferblot Turbo Transfer System (Bio-Rad). After the transfer, the membranes were blocked for 30 min in 5% skimmed milk dissolved in 1× TBST, and then incubated with 1:2000 primary antibodies in 5% BSA in TBST at 4 °C overnight.
(§2) The next day, the membranes were washed three times in TBST for 10 min, and then incubated with secondary antibodies (1:5000) diluted in 5% skimmed milk in TBST for 1 h at RT. […] All of the antigens and molecular weights in kDa are labelled next to the blots on the figures. Uncropped Western blot data are attached as Figure S6.

[6] = target: T1, Hsp90/Cdc37 (Homo sapiens, UniProt P07900); assay: Hsp90/Cdc37 split Renilla luciferase assay, full length Hsp90 (cell lysate; IC50 and 20 μM validation); format: biochemical; settings: MolPort Screening-3, tested concentration of drugs 20 μM
T1 construct: The Hsp90/Cdc37 split Renilla luciferase assay using the full length Hsp90 for the compound screening was described previously; expressed in transfected cells; host or cells: HEK293 EBNA cells, cleared lysates
Experimental: (§3) In the second in silico screening of the FIMM database, we employed the four identified chemical scaffolds (Figure S2B) for the visual inspection of the FIMM compound library. […] All of the purchased compounds were validated in vitro at 20 μM using the split Renilla luciferase assay.
(§4) The Hsp90/Cdc37 split Renilla luciferase assay using the full length Hsp90 for the compound screening was described previously. […] After 48 h, the cells were trypsinized and washed with PBS. The harvested cells were lysed in 1 mL of the 1x lysis buffer provided in the Renilla Luciferase Reporter Assay System Kit from Promega (cat. E2820), and were incubated on ice for 10 min. The cell lysates were then cleared by centrifugation at 13,000× g for 1 min. […] After this, the screening/test compounds or DMSO—as indicated—were added to each well. In total, 5 µL NRL-Hsp90- or NRL-N-Hsp90-lysate was added to each well, one row at a time. Subsequently, the plate was incubated for 5 min at room temperature (RT). […] Just before the reading, 20 µL assay buffer containing 2× Renilla luciferase substrate (coelenterazine) was added. For the FIMM screening, sample wells were read on a PHERAstar plate reader (BMG LABTECH) at a gain level of 4000, after 10 s shaking, using a hypomorph of NRL-Hsp90. For the subsequent validations of the compounds, sample wells with the above-described assay constructs were read using a synergy H1 Hybrid Multi-Mode reader (BioTek) in the luminescence detection mode, as described previously in detail.

[7] = tested on: Hsp90, Hsp70; assay: Western blotting of Hsp90 and Hsp70 (heat shock response); format: cell-based; settings: Western blot, 24 h; four cancer cell lines; 17-AAG 2 μM
Experimental: as §1, §2

[8] = tested on: Hsp90/Cdc37; assay: FIMM screening in split Renilla luciferase assay with hypomorphic NRL-Hsp90 construct, 20 μM; format: biochemical
Experimental: as §3, §4

[9] = target: T2, Hsp90α (N-terminal) (Homo sapiens, UniProt P07900); assay: Hsp90 N-terminal ATP-binding site competition assay (FITC-geldanamycin fluorescence polarization)
T2 construct: purchased BPS Bioscience 50298
Experimental: The reaction was initiated by adding 35 ng/μL purified recombinant Hsp90α, and was incubated at RT with slow shaking for 2 h. All of the reactions were performed in a black, low binding NUNC microtiter plate, included in the kit, and the total reaction volume was 50 μL. The enzyme control was measured without the test compound, and the enzyme background control was measured without the test compound or Hsp90α. […] All of the controls and the blank contained 10% DMSO, as did all of the samples of the test compounds. All of the samples were analyzed as duplicates. […] The blank value was subtracted from all of the other values, and the fluorescence polarization was determined as:(1) mP = ((III − I⊥)/(III+ I⊥)) × 1000 where III is the intensity of the parallel, and I┴ the intensity of the perpendicular polarized light.

Structure (SMILES)	K-RasG12V nanoclustering-FRET [1]	H-RasG12V nanoclustering-FRET [2]	Gal3 levels [3]	IC50 [4]	nuclear levels of HIF-1α [5]	normalized RLU ([6]; RLU normalized to DMSO (=1.00))	Average RLU ([6]; average of 3 wells (DMSO 248028))	induction of Hsp90 or Hsp70 expression (heat shock response) [7]	normalized RLU (FIMM Screening-1) ([8]; DMSO = 1.00)	normalized RLU (FIMM Screening-2, scaffold based) ([8]; DMSO = 1.00)	Average RLU (FIMM Screening-1) ([8]; mean of 3 wells, DMSO 50019)	Average RLU (FIMM Screening-2, scaffold based) ([8]; mean of 3 wells, DMSO 51006)	competition with FITC-geldanamycin (ATP-pocket binding, polarization signal) [9]
COC(=O)c1ccc(O)c(NC(=O)COc2ccc(C34CC5CC(CC(C5)C3)C4)cc2)c1 [CAY10585]	selectively decreased	not H-RasG12V nanoclustering-FRET	decreased the Gal3 levels										
CC[C@@H](C(=O)[C@@H](C)[C@@H](O)[C@H](C)[C@@H]1O[C@@H]([C@@H](CC)C(=O)O)CC[C@@H]1C)[C@H]1O[C@]2(C=C[C@@H](O)[C@]3(CC[C@@](C)([C@H]4CC[C@](O)(CC)[C@H](C)O4)O3)O2)[C@H](C)C[C@@H]1C [salinomycin]	blocks K-RasG12V-	not H-RasG12V-nanoclustering											
C=CCNC1=C2C[C@@H](C)C[C@H](OC)[C@H](O)[C@@H](C)/C=C(\C)[C@H](OC(N)=O)[C@@H](OC)/C=C\C=C(/C)C(=O)NC(=CC1=O)C2=O [17-AAG, 17-allylamino-17-demethoxy-geldanamycin, reference compound]	same selectivity			1000 nM	decreased the nuclear levels of HIF-1α	0.91	225640 RLU	increase in Hsp90 and, in particular, Hsp70	0.89	0.89	44367 RLU	45379 RLU	significantly reduced the signal
